# Active and inactive are the calls of the source. The calls are words filed in the database; no cut-off is given here.
# Assays:
# [1] = test system: Mus musculus; assay: Anti-colitis activity against DSS-induced C57BL/6 mouse model of subchronic relapsing colitis assessed as reduction in stool bleeding scores at 40 mg/kg, po administered once daily for 14 days starting from day 5 post DSS challenge and measured on day 19; type: functional, organism-based
# [2] = test system: Mus musculus; assay: Anti-colitis activity against DSS-induced C57BL/6 mouse model of chronic relapsing colitis assessed as reduction in stool bleeding at 40 mg/kg, po administered once daily for 30 days starting from day 13 post DSS-challenge measured on day 38; type: functional, organism-based
# [3] = test system: Mus musculus; assay: Anti-colitis activity against DSS-induced C57BL/6 mouse model of chronic relapsing colitis assessed as reduction in stool consistency score at 40 mg/kg, po administered once daily for 30 days starting from day 13 post DSS-challenge measured on day 24; type: functional, organism-based
# [4] = test system: Mus musculus; assay: Anti-colitis activity against DSS-induced C57BL/6 mouse model of chronic relapsing colitis assessed as reduction in stool consistency score at 40 mg/kg, po administered once daily for 30 days starting from day 13 post DSS-challenge measured on day 43; type: functional, organism-based
# [5] = test system: Mus musculus; assay: Antiinflammatory activity against DSS-induced C57BL/6 mouse model of subchronic relapsing colitis assessed as reduction in IL6 mRNA level at 40 mg/kg, po administered once daily for 14 days starting from day 5 post DSS-challenge by RT-qPCR analysis; type: functional, organism-based
# [6] = test system: Mus musculus; assay: Antiinflammatory activity against DSS-induced C57BL/6 mouse model of subchronic relapsing colitis assessed as reduction in IL17 mRNA level at 40 mg/kg, po administered once daily for 14 days starting from day 5 post DSS-challenge by RT-qPCR analysis; type: functional, organism-based
# [7] = test system: Mus musculus; assay: Anti-colitis activity against DSS-induced C57BL/6 mouse model of chronic relapsing colitis assessed as reduction in DSS-induced multiple erosive lesions in colon at 40 mg/kg, po administered once daily for 30 days starting from day 13 post DSS-challenge by hematoxylin and eosin staining based light microscopic analysis; type: functional, organism-based
# [8] = Toxicity in DSS-induced C57BL/6 mouse model of chronic relapsing colitis assessed as induction of abnormalities in kidney at 40 mg/kg, po administered once daily for 30 days starting from day 13 post DSS-challenge by hematoxylin and eosin staining based light microscopic analysis; type: organism-based; settings: in vivo, 720 h
# [9] = Toxicity in DSS-induced C57BL/6 mouse model of chronic relapsing colitis assessed as induction of abnormalities in brain at 40 mg/kg, po administered once daily for 30 days starting from day 13 post DSS-challenge by hematoxylin and eosin staining based light microscopic analysis; type: organism-based; settings: in vivo, 720 h
# [10] = test system: THP-1; assay: Antiinflammatory activity in human THP1 cells assessed as reduction in LPS-induced IL6 mRNA level at 1 uM incubated for 1 hr followed by LPS challenge and measured after 4 to 6 hrs by q-PCR method; type: functional, cell-based
# [11] = target: Signal transducer and activator of transcription 3 (Homo sapiens) (UniProt P40763); assay: Inhibition of STAT3 activation in human THP1 cells assessed as reduction in LPS-induced phosphorylated STAT3 expression at 0.5 uM cotreated with 0.5 uM berberine incubated for 1 hr followed by LPS challenge and measured after 4 to 6 hrs by Western blot analysis; type: cell-based; settings: THP-1
# Signal transducer and activator of transcription 3 (Homo sapiens), sequence (P40763 whole entry): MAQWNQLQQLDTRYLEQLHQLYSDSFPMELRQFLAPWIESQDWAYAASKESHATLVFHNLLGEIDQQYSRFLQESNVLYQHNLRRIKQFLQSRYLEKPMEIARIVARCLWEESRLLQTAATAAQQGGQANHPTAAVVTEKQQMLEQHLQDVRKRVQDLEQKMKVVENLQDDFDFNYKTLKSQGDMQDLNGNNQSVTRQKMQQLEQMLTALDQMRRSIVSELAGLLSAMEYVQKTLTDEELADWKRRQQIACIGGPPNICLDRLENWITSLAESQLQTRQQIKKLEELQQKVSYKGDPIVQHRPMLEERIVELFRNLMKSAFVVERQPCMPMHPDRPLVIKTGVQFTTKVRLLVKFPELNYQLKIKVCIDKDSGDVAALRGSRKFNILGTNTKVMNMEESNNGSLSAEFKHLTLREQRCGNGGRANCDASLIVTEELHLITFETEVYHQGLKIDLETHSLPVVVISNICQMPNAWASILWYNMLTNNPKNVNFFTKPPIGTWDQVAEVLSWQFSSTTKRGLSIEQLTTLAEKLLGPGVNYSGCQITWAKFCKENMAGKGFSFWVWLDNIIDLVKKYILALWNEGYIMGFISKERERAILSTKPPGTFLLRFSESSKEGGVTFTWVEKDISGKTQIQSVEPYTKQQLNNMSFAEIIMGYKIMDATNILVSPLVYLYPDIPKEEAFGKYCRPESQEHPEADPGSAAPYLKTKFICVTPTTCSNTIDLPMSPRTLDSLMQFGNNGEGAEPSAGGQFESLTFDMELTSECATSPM
# [12] = test system: Mus musculus; assay: Anti-colitis activity against DSS-induced C57BL/6 mouse model of subchronic relapsing colitis assessed as effect on body weight at 40 mg/kg, po administered once daily for 14 days starting from day 5 post DSS challenge and measured after day 12 to day 18; type: functional, organism-based
# [13] = test system: Mus musculus; assay: Anti-colitis activity against DSS-induced C57BL/6 mouse model of subchronic relapsing colitis assessed as reduction in spleen swelling at 40 mg/kg, po administered once daily for 14 days starting from day 5 post DSS-challenge; type: functional, organism-based
# [14] = Toxicity in DSS-induced C57BL/6 mouse model of chronic relapsing colitis assessed as induction of abnormalities in lung at 40 mg/kg, po administered once daily for 30 days starting from day 13 post DSS-challenge by hematoxylin and eosin staining based light microscopic analysis; type: organism-based; settings: in vivo, 720 h
# [15] = Toxicity in DSS-induced C57BL/6 mouse model of chronic relapsing colitis assessed as induction of abnormalities in heart at 40 mg/kg, po administered once daily for 30 days starting from day 13 post DSS-challenge by hematoxylin and eosin staining based light microscopic analysis; type: organism-based; settings: in vivo, 720 h
# [16] = test system: Mus musculus; assay: Effect on total S1PR1 expression in DSS-induced C57BL/6 mouse model of subchronic relapsing colitis at 40 mg/kg, po administered once daily for 14 days starting from day 5 post DSS-challenge by Western blot analysis; type: ADME, organism-based; settings: in vivo, 336 h
# [17] = test system: Mus musculus; assay: Anti-colitis activity against DSS-induced C57BL/6 mouse model of chronic relapsing colitis assessed as reduction in DSS-induced inflammatory cell infiltration at 40 mg/kg, po administered once daily for 30 days starting from day 13 post DSS-challenge by hematoxylin and eosin staining based light microscopic analysis; type: functional, organism-based
# [18] = target: Signal transducer and activator of transcription 3 (Homo sapiens) (UniProt P40763); assay: Inhibition of STAT3 activation in human THP1 cells assessed as reduction in LPS-induced phosphorylated STAT3 expression at 1 uM incubated for 1 hr followed by LPS challenge and measured after 4 to 6 hrs by Western blot analysis; type: cell-based; settings: THP-1
# [19] = test system: Mus musculus; assay: Anti-colitis activity against DSS-induced C57BL/6 mouse model of subchronic relapsing colitis assessed as reduction in DSS-induced colon swelling at 40 mg/kg, po administered once daily for 30 days starting from day 13 post DSS-challenge; type: functional, organism-based
# [20] = test system: Mus musculus; assay: Anti-colitis activity against DSS-induced C57BL/6 mouse model of subchronic relapsing colitis assessed as reduction in phosphorylated STAT3 level at 40 mg/kg, po administered once daily for 14 days starting from day 5 post DSS-challenge by Western blot analysis; type: functional, organism-based
# [21] = test system: Mus musculus; assay: Anti-colitis activity against DSS-induced C57BL/6 mouse model of chronic relapsing colitis assessed as reduction in DSS-induced loss of colon crypt and columnar epithelium at 40 mg/kg, po administered once daily for 30 days starting from day 13 post DSS-challenge by hematoxylin and eosin staining based light microscopic analysis; type: functional, organism-based
# [22] = test system: Mus musculus; assay: Anti-colitis activity against DSS-induced C57BL/6 mouse model of chronic relapsing colitis assessed as reduction in stool bleeding at 40 mg/kg, po administered once daily for 30 days starting from day 13 post DSS-challenge measured on day 43; type: functional, organism-based
# [23] = test system: Mus musculus; assay: Anti-colitis activity against DSS-induced C57BL/6 mouse model of subchronic relapsing colitis assessed as reduction in DSS-induced colon shortening at 40 mg/kg, po administered once daily for 14 days starting from day 5 post DSS-challenge; type: functional, organism-based
# [24] = test system: Mus musculus; assay: Anti-colitis activity against DSS-induced C57BL/6 mouse model of chronic relapsing colitis assessed as reduction in disease activity index at 40 mg/kg, po administered once daily for 30 days starting from day 13 post DSS-challenge and measured on day 43; type: functional, organism-based
# [25] = test system: Mus musculus; assay: Anti-colitis activity against DSS-induced C57BL/6 mouse model of subchronic relapsing colitis assessed as reduction in colon swelling at 40 mg/kg, po administered once daily for 14 days starting from day 5 post DSS-challenge; type: functional, organism-based
# [26] = Toxicity in DSS-induced C57BL/6 mouse model of chronic relapsing colitis assessed as induction of abnormalities in liver at 40 mg/kg, po administered once daily for 30 days starting from day 13 post DSS-challenge by hematoxylin and eosin staining based light microscopic analysis; type: organism-based; settings: in vivo, 720 h
# [27] = test system: Mus musculus; assay: Anti-colitis activity against DSS-induced C57BL/6 mouse model of subchronic relapsing colitis assessed as reduction in stool consistency scores at 40 mg/kg, po administered once daily for 14 days starting from day 5 post DSS challenge and measured on day 19; type: functional, organism-based
# [28] = test system: Mus musculus; assay: Anti-colitis activity against DSS-induced C57BL/6 mouse model of chronic relapsing colitis assessed as reduction in disease activity index at 40 mg/kg, po administered once daily for 30 days starting from day 13 post DSS-challenge and measured on day 24; type: functional, organism-based
# [29] = test system: Mus musculus; assay: Antiinflammatory activity against DSS-induced C57BL/6 mouse model of subchronic relapsing colitis assessed as reduction in S1PR1 mRNA level at 40 mg/kg, po administered once daily for 14 days starting from day 5 post DSS-challenge by RT-qPCR analysis; type: functional, organism-based
# [30] = test system: THP-1; assay: Antiinflammatory activity in human THP1 cells assessed as reduction in LPS-induced TNFalpha mRNA level at 1 uM incubated for 1 hr followed by LPS challenge and measured after 4 to 6 hrs by q-PCR method; type: functional, cell-based
# [31] = test system: Mus musculus; assay: Anti-colitis activity against DSS-induced C57BL/6 mouse model of subchronic relapsing colitis assessed as reduction in disease activity index at 40 mg/kg, po administered once daily for 14 days starting from day 5 post DSS challenge and measured on day 19; type: functional, organism-based
# [32] = test system: Mus musculus; assay: Antiinflammatory activity against DSS-induced C57BL/6 mouse model of subchronic relapsing colitis assessed as reduction in TNFalpha mRNA level at 40 mg/kg, po administered once daily for 14 days starting from day 5 post DSS-challenge by RT-qPCR analysis; type: functional, organism-based
# [33] = test system: Mus musculus; assay: Anti-colitis activity against DSS-induced C57BL/6 mouse model of chronic relapsing colitis assessed as reversal of DSS-induced colon shortening at 40 mg/kg, po administered once daily for 30 days starting from day 13 post DSS-challenge; type: functional, organism-based
# [34] = test system: Mus musculus; assay: Effect on total STAT3 expression in DSS-induced C57BL/6 mouse model of subchronic relapsing colitis at 40 mg/kg, po administered once daily for 14 days starting from day 5 post DSS-challenge by Western blot analysis; type: ADME, organism-based; settings: in vivo, 336 h
structure (smiles),measurement,setting,value
COc1ccc2cc3[n+](cc2c1OC)CCc1cc2c(cc1-3)OCO2.[Cl-] [BERBERINE CHLORIDE],Activity,[1],Active
same,Activity,[2],Active
same,Activity,[3],Active
same,Activity,[4],Active
same,Activity,[5],Active
same,Activity,[6],Active
same,Activity,[7],Active
same,Activity,[8],Non-Toxic
same,Activity,[9],Non-Toxic
same,Activity,[10],Active
same,inhibition,[11],Active
same,Activity,[12],inactive
same,Activity,[13],inactive
same,Activity,[14],Non-Toxic
same,Activity,[15],Non-Toxic
same,Activity,[16],Non-Toxic
same,Activity,[17],Active
same,inhibition,[18],Active
same,Activity,[19],inactive
same,Activity,[20],Active
same,Activity,[21],Active
same,Activity,[22],Active
same,Activity,[23],Active
same,Activity,[24],Active
same,Activity,[25],inactive
same,Activity,[26],Non-Toxic
same,Activity,[27],Active
same,Activity,[28],Active
same,Activity,[29],inactive
same,Activity,[30],Active
same,Activity,[31],Active
same,Activity,[32],Active
same,Activity,[33],Active
same,Activity,[34],Non-Toxic

# Source: ChEMBL document CHEMBL4619760, “Anti-inflammatory Efficacy of Combined Natural Alkaloid Berberine and S1PR Modulator Fingolimod at Low Doses in Ulcerative Colitis Preclinical Models” (J Nat Prod, 2020)
